Molecules are shown by their SMILES. In brackets after ≈: the same amount, converted by molar mass.

In one data set the test system is Staphylococcus aureus. Put plainly: Antibacterial activity against Staphylococcus aureus NCIM 2079 by broth dilution technique. It counts as functional.
The subject of a further data set is Bacillus subtilis. Put plainly: Antibacterial activity against Bacillus subtilis NCIM 2439 by broth dilution technique. It is filed as functional.
The test system of the next data set is Escherichia coli. The experiment in a line: Antibacterial activity against Escherichia coli NCIM 5051 by broth dilution technique. It is filed as functional.
The subject of a further data set is Pseudomonas aeruginosa. The experiment in a line: Antibacterial activity against Pseudomonas aeruginosa ATCC 10145 by broth dilution technique. It counts as functional.
A further data set deals with Aspergillus niger. Put plainly: Antifungal activity against Aspergillus niger NCIM 1196 by agar diffusion method. It counts as functional.
The test system of a further data set is Candida albicans. Put plainly: Antifungal activity against Candida albicans NCIM 3417 by agar diffusion method. It counts as functional.
The nature of data set [1]: Octanol-water partition coefficient, log P of the compound. It is filed as physicochemical.
In data set [2] the test system is Mycobacterium tuberculosis. Put plainly: microbe, parasite or virus in culture. Conditions: H37Rv.
Description: Antimycobacterial activity against Mycobacterium tuberculosis H37Rv by agar double dilution technique

On to `Cc1c(NCc2nnc(-c3ccccc3Cl)o2)c(=O)n(-c2ccccc2)n1C`, for which the MIC against Staphylococcus aureus is 4 µg/mL (≈ 10.1 µM); against Bacillus subtilis, 4 µg/mL (≈ 10.1 µM); against Escherichia coli, 4 µg/mL (≈ 10.1 µM); against Pseudomonas aeruginosa it was 8 µg/mL (≈ 20.2 µM); in the data set with Aspergillus niger it was 256 µg/mL (≈ 647 µM); with Candida albicans, 256 µg/mL (≈ 647 µM). Further, the lipophilicity (logP) in data set [1] came to 2.72. This molecule registered an MIC90 in data set [2] of 1.97 µM (≈ 0.78 µg/mL).

For the molecule `Cc1c(NCc2nnc(-c3ccc(Cl)cc3)o2)c(=O)n(-c2ccccc2)n1C`, the MIC is 8 µg/mL (≈ 20.2 µM) in the data set on Staphylococcus aureus; 8 µg/mL (≈ 20.2 µM) in the data set on Bacillus subtilis; 4 µg/mL (≈ 10.1 µM) against Escherichia coli; 8 µg/mL (≈ 20.2 µM) against Pseudomonas aeruginosa; 256 µg/mL (≈ 647 µM) in the data set with Aspergillus niger; 128 µg/mL (≈ 323 µM) against Candida albicans. Besides, the log partition coefficient (logP) in data set [1] was found to be 2.7. The same molecule displayed an MIC90 in data set [2] of 3.94 µM (≈ 1.56 µg/mL).

As for `Cc1c(NCc2nnc(-c3ccc(N)cc3)o2)c(=O)n(-c2ccccc2)n1C`, the minimal inhibitory concentration (MIC) in the data set with Staphylococcus aureus worked out at 16 µg/mL (≈ 42.5 µM); against Bacillus subtilis, 32 µg/mL (≈ 85 µM); in the data set with Escherichia coli, 16 µg/mL (≈ 42.5 µM); against Pseudomonas aeruginosa, 64 µg/mL (≈ 170 µM); against Aspergillus niger it was 128 µg/mL (≈ 340 µM); against Candida albicans, 128 µg/mL (≈ 340 µM). This molecule yielded a lipophilicity (logP) in data set [1] of 1.13. Besides, the MIC90 in data set [2] is 4.15 µM (≈ 1.56 µg/mL).

With `Cc1c(NCc2nnc(-c3ccncc3)o2)c(=O)n(-c2ccccc2)n1C`, the MIC was 16 µg/mL (≈ 44.2 µM) with Staphylococcus aureus; 16 µg/mL (≈ 44.2 µM) with Bacillus subtilis; 16 µg/mL (≈ 44.2 µM) with Escherichia coli; 32 µg/mL (≈ 88.3 µM) in the data set on Pseudomonas aeruginosa; 256 µg/mL (≈ 706 µM) in the data set with Aspergillus niger; 256 µg/mL (≈ 706 µM) with Candida albicans. The same molecule returned a logP in data set [1] of 0.8. In data set [2], the MIC90 was 0.78 µM (≈ 0.283 µg/mL).

On to `Cc1c(NCc2nnc(-c3ccccc3O)o2)c(=O)n(-c2ccccc2)n1C`, for which the minimal inhibitory concentration (MIC) came out at 128 µg/mL (≈ 339 µM) in the data set on Staphylococcus aureus; 64 µg/mL (≈ 170 µM) in the data set with Bacillus subtilis; 128 µg/mL (≈ 339 µM) against Escherichia coli; 128 µg/mL (≈ 339 µM) against Pseudomonas aeruginosa; 8 µg/mL (≈ 21.2 µM) in the data set with Aspergillus niger; 16 µg/mL (≈ 42.4 µM) with Candida albicans. Besides, in data set [1], the lipophilicity (logP) amounted to 1.71. This molecule came in with an MIC90 in data set [2] of more than 13.2 µM.

For the molecule `CC(=O)Oc1ccccc1-c1nnc(CNc2c(C)n(C)n(-c3ccccc3)c2=O)o1`, the MIC was determined as 512 µg/mL (≈ 1220 µM) with Staphylococcus aureus; 256 µg/mL (≈ 610 µM) in the data set with Bacillus subtilis; 256 µg/mL (≈ 610 µM) with Escherichia coli; 512 µg/mL (≈ 1220 µM) against Pseudomonas aeruginosa; 512 µg/mL (≈ 1220 µM) in the data set on Aspergillus niger; 512 µg/mL (≈ 1220 µM) against Candida albicans. Also, in data set [1], the logP worked out at 1.98. Moreover, the MIC90 in data set [2] is more than 12.8 µM.

For the molecule `Cc1c(NCc2nnc(-c3ccccc3)o2)c(=O)n(-c2ccccc2)n1C`, the minimal inhibitory concentration (MIC) against Staphylococcus aureus, against Bacillus subtilis, with Escherichia coli, against Pseudomonas aeruginosa, in the data set with Aspergillus niger and with Candida albicans was 512 µg/mL (≈ 1420 µM) in each case. The same molecule yielded a logP in data set [1] of 2.02. For the same molecule, the MIC90 in data set [2] is 10 µM (≈ 3.61 µg/mL).

`COc1ccc(-c2nnc(CNc3c(C)n(C)n(-c4ccccc4)c3=O)o2)cc1`: the minimal inhibitory concentration (MIC) in the data set with Staphylococcus aureus is more than 512 µg/mL; with Bacillus subtilis it was more than 512 µg/mL; with Escherichia coli, 256 µg/mL (≈ 654 µM); in the data set on Pseudomonas aeruginosa it was more than 512 µg/mL; against Aspergillus niger, 16 µg/mL (≈ 40.9 µM); with Candida albicans, 32 µg/mL (≈ 81.8 µM). In data set [1], this molecule showed a log partition coefficient (logP) of 2.07. In addition, in data set [2], the MIC90 is more than 12.8 µM.

Turning to `Cc1ccccc1-c1nnc(CNc2c(C)n(C)n(-c3ccccc3)c2=O)o1`, the minimum inhibitory concentration (MIC) against Staphylococcus aureus turned out to be 256 µg/mL (≈ 682 µM); against Bacillus subtilis, 256 µg/mL (≈ 682 µM); in the data set on Escherichia coli it was 256 µg/mL (≈ 682 µM); in the data set with Pseudomonas aeruginosa it was 512 µg/mL (≈ 1360 µM); with Aspergillus niger, 8 µg/mL (≈ 21.3 µM); with Candida albicans, 16 µg/mL (≈ 42.6 µM). The log partition coefficient (logP) in data set [1] was 2.38. In data set [2], this molecule returned an MIC90 of more than 13.3 µM.

Regarding `Cc1cccc(-c2nnc(CNc3c(C)n(C)n(-c4ccccc4)c3=O)o2)c1`, the minimal inhibitory concentration (MIC) is more than 512 µg/mL with Staphylococcus aureus; more than 512 µg/mL with Bacillus subtilis; 512 µg/mL (≈ 1360 µM) against Escherichia coli; more than 512 µg/mL against Pseudomonas aeruginosa; 128 µg/mL (≈ 341 µM) against Aspergillus niger; 256 µg/mL (≈ 682 µM) in the data set with Candida albicans. Besides, in data set [1], the logP turned out to be 2.39. The same molecule returned an MIC90 in data set [2] of more than 13.3 µM.

Take `Cc1ccc(-c2nnc(CNc3c(C)n(C)n(-c4ccccc4)c3=O)o2)cc1`: the minimal inhibitory concentration (MIC) is 512 µg/mL (≈ 1360 µM) with Staphylococcus aureus; 512 µg/mL (≈ 1360 µM) in the data set with Bacillus subtilis; 256 µg/mL (≈ 682 µM) in the data set on Escherichia coli; 512 µg/mL (≈ 1360 µM) in the data set with Pseudomonas aeruginosa; 4 µg/mL (≈ 10.7 µM) with Aspergillus niger; 4 µg/mL (≈ 10.7 µM) with Candida albicans. In data set [1], this molecule gave a lipophilicity (logP) of 2.48. Besides, the MIC90 in data set [2] was 10 µM (≈ 3.75 µg/mL).

Take `Cc1c(NCc2nnc(Cc3ccccc3)o2)c(=O)n(-c2ccccc2)n1C`: the minimum inhibitory concentration (MIC) turned out to be 256 µg/mL (≈ 682 µM) in the data set with Staphylococcus aureus; 256 µg/mL (≈ 682 µM) against Bacillus subtilis; 256 µg/mL (≈ 682 µM) in the data set on Escherichia coli; 256 µg/mL (≈ 682 µM) against Pseudomonas aeruginosa; 512 µg/mL (≈ 1360 µM) in the data set with Aspergillus niger; 512 µg/mL (≈ 1360 µM) in the data set with Candida albicans. In addition, the logP in data set [1] was determined as 1.64. This molecule also had an MIC90 in data set [2] of 10 µM (≈ 3.75 µg/mL).

As to `Cc1c(NCc2nnc(COc3ccccc3)o2)c(=O)n(-c2ccccc2)n1C`, the MIC is 128 µg/mL (≈ 327 µM) in the data set on Staphylococcus aureus; 128 µg/mL (≈ 327 µM) in the data set on Bacillus subtilis; 64 µg/mL (≈ 164 µM) with Escherichia coli; 128 µg/mL (≈ 327 µM) in the data set with Pseudomonas aeruginosa; more than 512 µg/mL in the data set on Aspergillus niger; 512 µg/mL (≈ 1310 µM) in the data set on Candida albicans. Further, the logP in data set [1] was found to be 0.98. The molecule further gave an MIC90 in data set [2] of 12.8 µM (≈ 5 µg/mL).

Consider `Cc1c(NCc2nnc(-c3cccs3)o2)c(=O)n(-c2ccccc2)n1C`, for which the MIC is 8 µg/mL (≈ 21.8 µM) in the data set with Staphylococcus aureus; 16 µg/mL (≈ 43.5 µM) with Bacillus subtilis; 8 µg/mL (≈ 21.8 µM) against Escherichia coli; 8 µg/mL (≈ 21.8 µM) in the data set on Pseudomonas aeruginosa; 128 µg/mL (≈ 348 µM) in the data set on Aspergillus niger; 256 µg/mL (≈ 697 µM) in the data set with Candida albicans. For the same molecule, in data set [1], the lipophilicity (logP) was determined as 1.9. In data set [2], this molecule registered an MIC90 of 6.81 µM (≈ 2.5 µg/mL).

As to `O=C(O)c1cn(C2CC2)c2cc(N3CCNCC3)c(F)cc2c1=O` [CIPROFLOXACIN], the minimum inhibitory concentration (MIC) against Staphylococcus aureus, against Bacillus subtilis and in the data set with Pseudomonas aeruginosa was 4 µg/mL (≈ 12.1 µM) throughout.

With `OC(Cn1cncn1)(Cn1cncn1)c1ccc(F)cc1F` [FLUCONAZOLE], the minimum inhibitory concentration (MIC) with Aspergillus niger was 2 µg/mL (≈ 6.53 µM); in the data set with Candida albicans, 1 µg/mL (≈ 3.27 µM).

Consider `NNC(=O)c1ccncc1` [ISONIAZID], for which, in data set [2], the MIC90 was 0.78 µM (≈ 0.107 µg/mL).

(Values after ChEMBL document CHEMBL1921682, “Molecular properties prediction and synthesis of novel 1,3,4-oxadiazole analogues as potent antimicrobial and antitubercular agents” (Bioorg Med Chem Lett, 2011).)
